In patent publication US20080269121A1, “Methods and Compositions Involving A1c Subunit of L-Type Calcium Channels in Smooth Muscle Cells” (The Board of Regents of the University of Texas System, priority 2005, published 2008):
Entries after “also recorded” stand apart in the source; their conditions may differ. Like-named read-outs stand apart in the source and are kept apart here.

How the values were obtained:
[1] = tested on: α1C subunit of L-type Ca^2+ channels; assay: Q-PCR of α1C mRNA expression in HCCSMC; format: cell-based, human; details: for induction of α1C mRNA expression: HCCSMC
Description: (§1) Primary cultures of HCCSMC: Human tissue was obtained from the descending and sigmoid colons with approval of the University of Texas Medical Branch Institutional Review Board from disease free margins of resected segments from patients undergoing surgery for colon cancer. The circular muscle layer was separated from the taenia coli and lamina propria with a tissue slicer. The circular muscle layer was collected in ice-cold HEPES buffer (in mM: 120 NaCl, 2.6 KH2S04, 4 KCl, 2 CaCl2, 0.6 MgCl2, 25 HEPES, 14 glucose and 2.1% essential amino acid mixture, pH 7.4). Two successive digestions with papain and collagenase, as described previously by Shi and Sarna, were used to disperse smooth muscle cells. The cells were cultured in RPMI 1640 (Gibco/Invitrogen, Carlsbad, Calif.) supplemented with 10% fetal bovine serum in the presence of 100 units/mL of penicillin G, 100 μg/mL of streptomycin sulfate and 0.25 μg/mL of amphoteracin B. The culture medium was changed every three days. Cells in passages 3 to 5 were used in all experiments. All cells were cultured in serum-free medium for at least 15 h prior to experiments to eliminate the possible effects of growth factors. […] The cultures of colonic smooth muscle cells retain their contractile phenotype. Each experiment used cells or muscle strips from at least three different subjects.
Total RNA was extracted from cells using the Qiagen RNeasy kit (Qiagen, Valencia, Calif.) by following the manufacturer's protocol. The cDNAs were made using the Superscript First-Strand Synthesis System (Invitrogen, Carlsbad, Calif.).
Quantitive real-time-polymerase chain reaction (Q-PCR). Q-PCR assay is employed to determine gene expression using TaqMan technology on Applied Biosystems 7000 sequence detection system (UTMB Real-time PCR Core Facility). Applied Biosystems Assays-By-Design containing a 20× assay mix of primers and TaqMan MGB probes (FAMTM dye-labeled) are used for a target gene and the endogenous control, human 18s RNA. These assays were designed using primers that span exon-exon junctions so as not to detect genomic DNA. All primer and probe sequences were searched against the Celera data base to confirm specificity. The primer and probe sequences used were as follows: human Cav1.2 channel oα1C intermediate form (Cav1.2b) probe spanning exon 1b and exon 2, […] (SEQ ID NO:4): forward primer, […] (SEQ ID NO:5): reverse primer, […] (SEQ ID NO:6). Human Cav1.2 channel α1C long form (Cav1.2a) probe spanning exon 1a and exon 2: […] (SEQ ID NO:7): forward primer, […] (SEQ ID NO:8): reverse primer. […] (SEQ ID NO:6).

α1C1b promoter = α1C1b promoter luciferase reporter activity in HCCSMC; format: cell-based, human; details: for α1C1b promoter reporter (luciferase) activity: substance by itself; for effect on enhancement of α1C1b promoter activity by VIP: with VIP
Description: Transient cell transfections and luciferase activity. FuGENE 6 (Roche, Mannheim, Germany) is used to transfect luciferase-expressing pGL2 constructs in HCCSMC. The cells in passage 4 are seeded into 12-well plates (Costar, Acton, Mass.) and grown to 70% to 80% confluency. Transfections are carried out by incubation of cells in each well with 1.5 μl of FuGENE 6, 0.5 μg of pGL2 construct, and 0.125 μg of pSEAP2 Control Vector (BD Biosciences Clontech, Palo Alto, Calif.) for 24 h as per manufacturer's instructions. The pSEAP2 Control Vector is co-transfected for normalization of data. The transfected cells were treated with stimulus or medium control and harvested after 24 hours. Twenty μl of the supernatant of the cell lysates are taken for the measurement of luciferase activity by a luminometer (Promega, Madison, Wis.). The SEAP activity is measured with a Clontech SEAP detection kit by following the manufacturer's instructions.
Promoter constructs, 5′-deletions, and site-directed mutagenesis. The promoter constructs of hα1c1b are prepared by PCR amplification of human genomic DNA (Roche, Indianapolis, Ind.) and digested partially with Hind III (Promega, Madison, Wis.) using the FailSafe PCR kit (Epicentre, Madison, Wis.). The PCR product is subcloned into pDrive Cloning Vector with the PCR Cloning^plus kit (Qiagen, Valencia, Calif.) and SURE 2 supercompetent cells (Stratagene, La Jolla, Calif.) and subsequently transferred to the luciferase expression plasmid pGL2-Basic Vector (Promega, Madison, Wis.). The deletion constructs are made using the full length promoter construct as a template in PCR reactions. The same methods and kits are used to subclone the sequenced PCR products into the pDrive and pGL2 vector. The site-directed mutagenesis is carried out using QuikChange® II XL Site-Directed Mutagenesis Kit from Stratagene (La Jolla, Calif.), as per manufacturer's instructions.

[2] = tested on: human colonic circular muscle strips; assay: Muscle bath: contractile response of human colonic circular muscle strips; format: cell-based
Description: (§2) Muscle bath experiments. Pure circular muscle strips (2 mm×10 mm) are prepared from resected human colon segments. The strips are mounted in 5 ml baths filled with carbonated Krebs solution (in mM: 118 NaCl, 4.7 KCl, 2.5 CaCl2, 1 NaH2PO4, 1-2 MgCl2, 11 D-glucose, and 25 NaHCO3) at 37° C. (Siebenlist et al., 1994; Barnes and Karin, 1997). The muscle strips are equilibrated for 1 h at 1 g tension and then stretched until maximal response is obtained to 10^−4 m ACh. The bathing solution is replaced every 15 min. Contractions are measured by force transducers and analyzed by DATAQ (Akron, Ohio) software.
The protocol for transfection of sense and antisense oligonucleotides in freshly obtained muscle strips was similar to that in HCCSMC. The circular muscle layer was isolated from the fall thickness human colon, and sliced into 2 mm×10 mm muscle strips. The strips were incubated in RPMI 1640 without serum. The sense and antisense oligonucleotides (10 μM) were added into the medium for 24 h before incubation with 20 ng/mL TNFα for 24 h.

[3] = tested on: α1C subunit of L-type Ca^2+ channels; assay: α1C protein expression (Western immunoblotting); format: cell-based, human; details: muscle strip tissue, FIG. 14 top
Description: as §1
Western immunoblotting. Each lane is loaded with 10 μg protein and size-separated on a 10% SDS polyacrylamide gel. After blotting, the nitrocellulose membranes are blocked with 10% non-fat dried milk at 4° C. overnight. The blots are incubated with appropriate dilution of the antibody at 4° C. overnight and appropriate dilution of designated secondary antibody at room temperature for 1 h. β-actin is used as internal control.

[4] = tested on: TNBS-induced inflammation; format: in vivo, rat; details: for suppression of contractile response, with sub-threshold dose of TNBS: osmotic pump plus TNBS 30 mg/kg, compared with TNBS 130 mg/kg
Description: as §2
(§3) Vertebrate Animals. Sprague-Dawley rats were used. For tissue harvesting, the rats were anesthetized with 5% isoflurame in 100% oxygen for 5 to 7 minutes followed by i.p. injection of 50 mg/kg ketamine.
(§4) Osmotic pumps were implanted under anesthesia as discussed above. Lateral surface of left back were shaven and cleaned with betadine. A 2 cm incision was made in the skin and subcutaneous facia and muscle separated. The micro-osmotic pump were implanted intramuscularly and the incision was closed.
Colonic inflammation was induced by intraluminal injection of 30 mg/kg or 130-mg/kg trinitrobenzene sulfonic acid (TNBS) under anesthesia, as described above.

p65 subunit = assay: Nuclear abundance and binding of NF-κB p65 in HCCSMC; format: cell-based, human
Description: Cytoplasmic and nuclear protein, and RNA extraction: Cytoplasmic and nuclear proteins were prepared as described earlier by Shi et al. Briefly, the cells were washed twice with phosphate-buffered saline solution and then with buffer A (in mM: 10 HEPES, 1.5 MgCl2, 10 KCl, 0.5 dithiothreitol, 0.5 phenylmethylsulfrenyl fluoride [PMSF]; 10 ng/mL leupeptin, and 10 ng/mL aprotinin). The cells were resuspended in 25 μL of buffer A containing 0.25% NP-40 and incubated at 4° C. for 10 minutes. After centrifugation at 12,000 g for 10 minutes, the supernatant was collected as cytoplasmic extract. The nuclear pellet was resuspended in 20 μL of buffer C (in mM: 20 HEPES, […], 1.5 MgCl2, 0.2 ethylenediaimetetraacetic acid (EDTA), 0.5 DTT, 0.5 PMSF; 24% glycerol, 10 ng/mL leupeptin, and 10 ng/mL aprotinin) and incubated on ice with frequent vortexing for 15 minutes. The samples were centrifuged at 14,000 g for 10 minutes, and the supernatant (nuclear extract) was transferred to a fresh tube with 5 volumes of buffer D (in mM: 20 HEPES, 0.2 EDTA, 50 KCl, 0.5 DTT, 0.5 PMSF; 20% glycerol, 10 ng/mL leupeptin, and 10 ng/mL aprotinin). The protein concentration was determined by using the Bio-Rad assay kit (Bio-Rad Laboratories, Hercules, Calif.).
Electrophoretic mobility shift assay. […]

CRE1 and CRE2 = assay: Oligonucleotide agarose conjugate pull-down of CREB; format: cell-based, human; details: with VIP, FIG. 10
[5] = tested on: rat middle colon muscle strips; assay: Osmotic pump administration in rats, contractile response of colon muscle strips; format: in vivo; details: systemic administration by osmotic pump for 3 days
Description: as §2, §3, §4

Cav1.2a = details: neonatal rat ventricular myocytes; cited from earlier work

Molecule: O=S(=O)(NCCNC/C=C/c1ccc(Br)cc1)c1cccc2cnccc12 [H-89]
- effect on α1C mRNA on its own ([1]; FIG. 4): no effect on its own
- effect on VIP enhancement of α1C mRNA ([1]; FIG. 4, with VIP): partially inhibited the effect of VIP

Molecule: pituitary adenylate cyclase-activating peptide [PACAP]
- effect on suppression of α1C1b promoter activity by TNFα (α1C1b promoter; with TNFα): significantly blocked this reduction
- effect on TNFα suppression of contractile response to ACh ([2]; muscle strips, treatment before/with TNFα): significantly reduces the suppression
- effect on TNFα suppression of α1C protein [3]: minimized
- induction of α1C mRNA expression [1]: induced expression
- effect on suppression of contractility due to TNBS-induced inflammation ([4]; intact rat model, treatment through osmotic pumps, expected): partially inhibit the suppression of contractility

Molecule: Oc1ccc(-c2nc(-c3ccncc3)c(-c3ccc(F)cc3)[nH]2)cc1 [SB202190]
- α1C1b promoter reporter (luciferase) activity (α1C1b promoter): little effect
- effect on enhancement of α1C1b promoter activity by VIP (α1C1b promoter): somewhat blunt the enhancement

Molecule: TNFα
- nuclear abundance and binding of p65 (p65 subunit): enhanced the nuclear abundance and binding of p65
- α1C1b promoter reporter (luciferase) activity (α1C1b promoter): reduced luciferase activity; also recorded: suppressed it
- effect on CREB binding after VIP treatment (CRE1 and CRE2): abrogated; also recorded: reduces the binding after VIP treatment
- contractile response of circular muscle strips to ACh ([2]; strips incubated 24 h, organ bath): suppresses their contractile response to ACh; also recorded: suppressed the contractile response to ACh; also recorded: suppression of contractility

Molecule: (p-chloro-D-Phe^6, Leu^17)-VIP
- suppression of contractile response, with sub-threshold dose of TNBS ([4]; listed as VIP receptor antagonist): increased the suppression of contractile response
- suppression of contractile response, with sub-threshold dose of TNBS ([4]; listed as VIP/PACAP receptor antagonist): enhanced the suppression of contractility
- contractile response to ACh, antagonist by itself ([4]; osmotic pump, no TNBS, FIG. 15): suppressed the contractile response
- diarrhea ([4]; rat, in vivo): did not develop diarrhea
- contractile response of rat colon muscle strips to ACh [5]: suppressed the contractile response

Molecule: CC(C)NCC(O)c1ccc(O)c(O)c1 (centres unmarked) [isoproterenol]
- Cav1.2a mRNA (Cav1.2a): transient increase in Cav1.2a mRNA
- increase in peak current density (Cav1.2a): about 40%

Molecule: NC[C@H](O)c1ccc(O)c(O)c1 [norepinephrine]
- induction of α1C mRNA expression [1]: induced the expression of α1C mRNA

Molecule: COc1cccc(-c2cc(=O)c3ccccc3o2)c1N [PD98059]
- α1C1b promoter reporter (luciferase) activity (α1C1b promoter): little effect
- effect on enhancement of α1C1b promoter activity by VIP (α1C1b promoter): little effect
